In patent US20240159675A1, “METHODS AND DEVICES FOR RATIOMETRIC CHARACTERIZATION OF FLUORESCENT PARTICLES” (NANOTEMPER TECHNOLOGIES GMBH, priority 2021, published 2024):
Like-named read-outs stand apart in the source and are kept apart here. {Cy5} = Cy5 dye label

Tests used:
[1] = test system: complementary 11-mer DNA strand labeled with Cy5; experiment: Kd-over-time curve of DNA hybridization, dual-emission configuration with IR laser (Example 10); format: binding
Method: For the DNA hybridization, a 16-point 1-to-1 dilution series of the unlabeled 11-mer (sequence: 5′ CCT GAA GTC C 3′) was prepared. The complementary 11-mer (sequence: 5′ GGA CTT CAG G 3′) was fluorescently labeled at its 5′ end with Cy5 and added in equal amounts to the dilution series to obtain a final sample concentration of 10 nM. The highest concentration of the unlabeled 11-mer corresponded to 100 μM.
(§1) At the timepoint 0 s, an IR laser was switched on. The response of the fluorescence intensity was simultaneously measured for 6 s (aptamer), respectively 21 s (DNA hybridization).
(§2) From above it is evident that information on the binding interaction (e.g. Kd) can be derived from any “vertical” slice in time along the ratiometric traces, when the method of the present invention is used in combination with fast IR laser heating. A new type of curve, which can be described as Kd-over-time curve can be generated. From this curve not only information on the thermodynamics but also on the binding kinetics of the interaction can be determined. In particular, if the equilibration kinetics of an interaction is slower than the heating with the IR laser, the Kd-over-time curve will show a characteristic lag.
(§3) The Kd-over-time curves provided in FIG. 23 reveal three different interactions with different dissociation constants Kd and binding kinetics.

[2] = Fluorescence ratio of labeled protein over time at room temperature (Example 9); format: physicochemical; details: 20 nM labeled protein, 0, 3, 8 and 19 minutes
Method: The labeled protein was then diluted to a concentration of 20 nM and loaded into a polymer-coated borosilicate glass capillary (Monolith NT.115 Premium Capillaries, MO-K025, NanoTemper Technologies).
The sample was excited at a wavelength of 591 nm. […] Measurements were performed directly after dilution (t=0 min) and again after 3, 8 and 19 minutes inside the capillary.

[3] = target: fluorescently labeled streptavidin (Streptomyces avidinii, UniProt P22629); experiment: Ratiometric dual-emission dose-response, biotin dilution series (Example 4); format: binding; details: 20 nM streptavidin
Method: A 12-point 1-to-1 dilution series of unlabeled biotin was prepared. […] The highest concentration of biotin corresponded to 500 nM.
As evident from the dose-response curve shown in FIG. 17, the ratio changed from a value of approx. 2.2 to approx. 1.2 when streptavidin is unbound or in complex with biotin, respectively. Since the target concentration is much higher than the Kd, a characteristic kink at the stoichiometry point at a concentration of 80 nM biotin can be observed.

streptavidin = streptavidin (Streptomyces avidinii, UniProt P22629); experiment: Emission spectrum of fluorescently labeled streptavidin alone and in complex with biotin; format: binding
From the text: (§4) Shifts of 3 nm and of approx. 500 pm correspond to relative changes in the fluorescence ratio of about 37.3% and 5.5%, respectively (Table 3).

Cy5-labeled DNA aptamer [4] = experiment: Ratiometric measurement with the dual-emission configuration, AMP dilution series (Example 1); format: binding; details: 20 nM Cy5-labeled DNA aptamer, read-out: Kd of the interaction
Method: (§5) A 14-point 1-to-1 dilution series of unlabeled AMP was prepared. The DNA aptamer was fluorescently labeled with Cy5 and added in equal amounts to the AMP dilution series to obtain a final sample concentration of 20 nM. The highest concentration of AMP corresponded to 5 mM. For measurements with a standard fluorescence microplate-reader (CLARIOstar, BMG Labtech) 95 […] of the sample were loaded into a micro-well plate.
(§6) For the microplate-reader measurements, the sample was excited at a wavelength of 590 nm and the emission was first detected at a wavelength of 628 nm to 652 nm. Then, the sample was again excited at the 590 nm wavelength and the emission was detected at a wavelength of 665 nm to 725 nm. Three subsequent fluorescence intensity measurements of the dilution series were run.
When using lower sample concentrations, i.e. 250 pM, for the ratiometric measurement according to the present invention, the signal-to-noise ratio (S/N) is still very good (19.8) and a Kd of the interaction can be easily determined (FIG. 10C).

Cy5-labeled DNA aptamer [5] = experiment: Ratiometric measurement with a standard fluorescence microplate-reader, AMP dilution series (Example 1); format: binding; details: 20 nM Cy5-labeled DNA aptamer, read-out: dissociation constant (Kd), midpoint of dose-response curve
Method: as §5, §6
In order to characterize the interaction with the fluorescence microplate-reader, the ratio between the fluorescence intensities per well was calculated manually by using a commercially available calculation tool (Microsoft Excel). The fluorescence detected at the higher wavelength was divided by the fluorescence detected at the lower wavelength. The sigmoidal dose-response curve provided in FIG. 10A starts at a ratio value of approx. 0.95 and ends at a ratio value of approx. 0.90. The midpoint, which corresponds to the dissociation constant (Kd) of the interaction, lies at approx. 20-30 μM. […]

[6] = target: Cy5-labeled DNA aptamer for adenosine; experiment: Kd-over-time curve, dual-emission configuration with IR laser, AMP (Example 10); format: binding; details: FIG. 23A
Method: For the aptamer, a 12-point 1-to-1 dilution series of unlabeled AMP was prepared. The DNA aptamer was fluorescently labeled with Cy5 and added in equal amounts to the AMP dilution series to obtain a final sample concentration of 20 nM. The highest concentration of AMP corresponded to 2 mM.
as §1, §2, §3

lysozyme [7] = target: T1, lysozyme (Gallus gallus, UniProt P00698); experiment: Ratio 350 nm/330 nm of intrinsic tryptophan fluorescence during thermal melting ramp 35° C. to 95° C.; format: binding; details: increasing / very high concentrations of NAG3, unlabeled lysozyme
Method: To monitor the temperature of denaturation, each sample is heated from 35° C. to 95° C. […] This shift cannot be used to extract the dissociation constant of this interaction.
The alterations in the fluorescence spectrum are independent of the nature of the fluorescent label, i.e. they equally appear in intrinsic as well as extrinsic fluorescent labels. However, the extend of the alterations in the fluorescence spectrum may be increased for certain classes of labels.

lysozyme [8] = target: T1, lysozyme; experiment: Emission spectrum of fluorescently labeled lysozyme alone and in complex with NAG3; format: binding; details: corresponding to the spectral shift (Table 3)
From the text: as §4

T1 sequence (P00698 19-147): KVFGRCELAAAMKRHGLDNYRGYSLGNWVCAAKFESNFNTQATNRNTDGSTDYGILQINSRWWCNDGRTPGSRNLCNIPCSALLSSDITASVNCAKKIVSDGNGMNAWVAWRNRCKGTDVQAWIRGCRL
Sequence of fluorescently labeled streptavidin (P22629 25-183, species assumed): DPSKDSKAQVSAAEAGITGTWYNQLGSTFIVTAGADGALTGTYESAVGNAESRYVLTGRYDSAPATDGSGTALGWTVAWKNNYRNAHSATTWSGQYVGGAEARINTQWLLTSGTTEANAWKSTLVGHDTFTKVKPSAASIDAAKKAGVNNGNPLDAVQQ
Sequence of streptavidin (P22629 25-183, species assumed): as above

Molecule: 11-mer complementary DNA strands: unlabeled 11-mer (5′ CCT GAA GTC C 3′) titrated against complementary 11-mer (5′ GGA CTT CAG G 3′) labeled at 5′ end with Cy5 (chain 1 CCTGAAGTCC; chain 2 GGACTTCAGG; chain 1: DNA, backbone not given here; chain 2: DNA, 5' {Cy5}, backbone not given here)
- koff ([1]; measured at 22° C., FIG. 23C): smaller than 0.01 s^−1
- Kd ([1]; measured at 22° C., FIG. 23C, read-out: Kd): ~0.005 µM
- koff ([1]; measured at 32° C., estimated, FIG. 23B): approx. 1 s^−1
- Kd ([1]; sample temperature 22° C., FIG. 24B, read-out: Kd value at start of IR laser on-time): ~0.01 µM
- Kd ([1]; temperature after IR laser heating approx. 32° C., FIG. 24B, read-out: Kd value after IR laser heating): ~0.5 µM

Molecule: Mitogen-activated protein kinase 14 (p38-α): Mitogen-activated protein kinase 14, fluorescently labeled with Protein Labeling Kit RED-NHS 2nd Generation
- stability at room temperature (fluorescence ratio over about 20 minutes) [2]: not stable at room temperature but gradually denatures

Molecule: O=C(O)CCCC[C@@H]1SC[C@@H]2NC(=O)N[C@@H]21 [biotin]
- stoichiometry point (kink in dose-response curve) ([3]; concentration of biotin): 80 nM
- ratio 670 nm/650 nm of streptavidin in complex with biotin ([3]; unbound approx. 2.2): approx. 1.2
- relative change in the fluorescence ratio (streptavidin; corresponding to the spectral shift (Table 3)): about 37.3%
- shift of the maximum emission peak wavelength (streptavidin; streptavidin 200 nM, biotin 2 μM, excitation 605 nm): 3 nm

Molecule: Nc1ncnc2c1ncn2[C@@H]1O[C@H](COP(=O)(O)O)[C@@H](O)[C@H]1O [AMP, adenosine monophosphate]
- Kd (Cy5-labeled DNA aptamer [4]): 39.3 µM
- Kd (Cy5-labeled DNA aptamer [5]): 20 to 30 µM
- Kd ([6]; Kd-over-time curve): ~30 µM
- koff ([6]; estimated from Kd-over-time curve): greater than 10 s^−1

Molecule: CC(=O)N[C@H]1[C@H](O[C@H]2[C@H](O)[C@@H](NC(C)=O)C(O)O[C@@H]2CO)O[C@H](CO)[C@@H](O[C@@H]2O[C@H](CO)[C@@H](O)[C@H](O)[C@H]2NC(C)=O)[C@@H]1O (stereo partly drawn) [NAG3, Tri-N-acetyl-D-glucosamine]
- effect on thermal denaturation of lysozyme (lysozyme [7]): thermal stabilization
- relative change in the fluorescence ratio (lysozyme [8]): ~5.5%
